From patent US20220401514A1, “ANTIMICROBIAL, BACTERIOPHAGE-DERIVED POLYPEPTIDES AND THEIR USE AGAINST GRAM-NEGATIVE AND ACID-FAST BACTERIA” (CONTRAFECT CORPORATION, priority 2019, published 2022)
Read-outs that look alike come from different tables or passages of the source.

Columns and labels:
[1] = tested on: Klebsiella pneumoniae strain 1139; experiment: Checkerboard assay (FICI) with antibiotics, K. pneumoniae; type: cell-based
Procedure, shortened: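 Antibiotics in 2-fold dilutions across one axis against Chp peptide dilutions on the other. FICI = MIC in combination/MIC alone for antibiotic plus the same ratio for peptide; minimum FICI used. Synergy at FICI ≤0.5, strongly additive >0.5 to <1, additive 1-<2, antagonistic ≥2.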

[2] = tested on: P. aeruginosa strain CFS-1292; experiment: Time-kill assay in CAA with 2.5% human serum; type: cell-based, Pseudomonas aeruginosa; details: for Loss of bacterial viability: CAA with […] human serum, vs untreated controls
Protocol: Time-Kill Assay of Chp Peptide Activity. […] Exponential phase bacteria were then diluted 1:100 into CAA/HuS and peptide was added at a final concentration of either 1 or 10 μg/mL. Control cultures were included with no peptide added (i.e., buffer control).

[3] = tested on: P. aeruginosa strain CFS 1292; type: cell-based, Pseudomonas aeruginosa
P. aeruginosa (CFS 1292) = experiment: microbe, parasite or virus in culture; type: cell-based, Pseudomonas aeruginosa
[4] = tested on: M. kansasii Hauduroy ATCC 12478; experiment: 45 hr MIC against M. kansasii (NTM), Mueller Hinton broth; type: cell-based, Mycobacterium kansasii
[5] = tested on: Mycobacterium tuberculosis strains
Protocol: MIC values for various Chp peptides were determined using the CLSI method for broth microdilution in 96-well microtiter format.
Next, MIC values for various Chp peptides were determined using the CLSI method above for broth microdilution in 96-well microtiter format for two different Mycobacterium tuberculosis strains. The MIC was determined as explained above for the NTM strains.

Sequence: MRLKMARRRYRLPRRRSRRLFSRTALRMHPRNRLRRIMRGGIRF [Chp2]
- FIC Index ([1]; Chp peptide combined with Colistin): 0.625
- FIC Index ([1]; Chp peptide combined with Imipenem): 0.5
- FIC Index ([1]; Chp peptide combined with Levofloxacin): 0.5
- FIC Index ([1]; Chp peptide combined with Meropenem): 0.313
- FIC Index ([1]; Chp peptide combined with Tobramycin): 0.5
- Chp peptide FIC ([1]; combined with Azithromycin): 0.125
- Chp peptide MIC in checkerboard ([1]; combined with Azithromycin): 0.0625 µg/mL
- Chp peptide FIC ([1]; combined with Aztreonam): 0.0625
- Chp peptide MIC in checkerboard ([1]; combined with Aztreonam): 0.3125 µg/mL
- Chp peptide FIC ([1]; combined with Colistin): 0.5
- Chp peptide MIC in checkerboard ([1]; combined with Colistin): 0.25 µg/mL
- Chp peptide FIC ([1]; combined with Imipenem): 0.25
- Chp peptide MIC in checkerboard ([1]; combined with Imipenem): 0.125 µg/mL
- Chp peptide FIC ([1]; combined with Levofloxacin): 0.25
- Chp peptide MIC in checkerboard ([1]; combined with Levofloxacin): 0.0625 µg/mL
- Chp peptide FIC ([1]; combined with Meropenem): 0.0625
- Chp peptide MIC in checkerboard ([1]; combined with Meropenem): 0.0625 µg/mL
- Chp peptide FIC ([1]; combined with Tobramycin): 0.25
- Chp peptide MIC in checkerboard ([1]; combined with Tobramycin): 0.125 µg/mL
- Loss of bacterial viability ([2]; 1 μg/mL, 1 hour): >3.5 log10 CFU/mL
- Loss of bacterial viability ([2]; 1 μg/mL, 3 hours): >4 log10 CFU/mL
- Loss of bacterial viability ([2]; 1 μg/mL, 24 hours): >4.8 log10 CFU/mL
- Loss of bacterial viability ([2]; 10 μg/mL, 1 hour): >3.5 log10 CFU/mL
- Loss of bacterial viability ([2]; 10 μg/mL, 3 hours): >4 log10 CFU/mL
- Loss of bacterial viability ([2]; 10 μg/mL, 24 hours): >4.8 log10 CFU/mL
- bacterial viability after treatment (time-kill) ([2]; 1, 3 and 24 hours, 1 μg/mL and 10 μg/mL, CAA + […] human serum): multi-log fold decreases
- Serial Passage MIC Day 0 ([3]; 21-day study, Day 0, duplicates (1),(2)): 0.25 µg/mL
- Serial Passage MIC Day 21 ([3]; 21-day study, Day 21, duplicates (1),(2)): 0.25 µg/mL
- Serial Passage MIC Day 0 (untreated) ([3]; Day 0, MIC of agent on untreated control culture): 0.25 µg/mL
- Serial Passage MIC Day 0 ([3]; Day 0, cultures passaged with agent, duplicates (1),(2)): 0.25 µg/mL
- Serial Passage MIC Day 1 (untreated) ([3]; Day 1, MIC of agent on untreated control culture): 0.25 µg/mL
- Serial Passage MIC Day 1 ([3]; Day 1, cultures passaged with agent, duplicates (1),(2)): 0.25 µg/mL
- Serial Passage MIC Day 2 (untreated) ([3]; Day 2, MIC of agent on untreated control culture): 0.25 µg/mL
- Serial Passage MIC Day 2 ([3]; Day 2, cultures passaged with agent, duplicates (1),(2)): 0.25 µg/mL
- Serial Passage MIC Day 3 (untreated) ([3]; Day 3, MIC of agent on untreated control culture): 0.25 µg/mL
- Serial Passage MIC Day 3 ([3]; Day 3, cultures passaged with agent, duplicates (1),(2)): 0.25 µg/mL
- Serial Passage MIC Day 4 (untreated) ([3]; Day 4, MIC of agent on untreated control culture): 0.25 µg/mL
- Serial Passage MIC Day 4 ([3]; Day 4, cultures passaged with agent, duplicates (1),(2)): 0.25 µg/mL
- Serial Passage MIC Day 5 (untreated) ([3]; Day 5, MIC of agent on untreated control culture): 0.25 µg/mL
- Serial Passage MIC Day 5 ([3]; Day 5, cultures passaged with agent, duplicates (1),(2)): 0.25 µg/mL
- Serial Passage MIC Day 6 (untreated) ([3]; Day 6, MIC of agent on untreated control culture): 0.25 µg/mL
- Serial Passage MIC Day 6 ([3]; Day 6, cultures passaged with agent, duplicates (1),(2)): 0.25 µg/mL
- Serial Passage MIC Day 7 (untreated) ([3]; Day 7, MIC of agent on untreated control culture): 0.25 µg/mL
- Serial Passage MIC Day 7 ([3]; Day 7, cultures passaged with agent, duplicates (1),(2)): 0.25 µg/mL
- Serial Passage MIC Day 8 (untreated) ([3]; Day 8, MIC of agent on untreated control culture): 0.25 µg/mL
- Serial Passage MIC Day 8 ([3]; Day 8, cultures passaged with agent, duplicates (1),(2)): 0.25 µg/mL
- Serial Passage MIC Day 9 (untreated) ([3]; Day 9, MIC of agent on untreated control culture): 0.25 µg/mL
- Serial Passage MIC Day 9 ([3]; Day 9, cultures passaged with agent, duplicates (1),(2)): 0.25 µg/mL
- change in MIC after 21 days ([3]; serial passage): no significant change
- Passage MIC Passage #1 (Untreated) (P. aeruginosa (CFS 1292); Passage #1, MIC of agent on untreated culture): 0.25 µg/mL
- Passage MIC Passage #1 (P. aeruginosa (CFS 1292); Passage #1, colonies from spot dilution, duplicates (1),(2)): 0.25 µg/mL
- Passage MIC Passage #2 (Untreated) (P. aeruginosa (CFS 1292); Passage #2, MIC of agent on untreated culture): 0.25 µg/mL
- Passage MIC Passage #2 (P. aeruginosa (CFS 1292); Passage #2, colonies from spot dilution, duplicates (1),(2)): 0.25 µg/mL
- Passage MIC Passage #3 (Untreated) (P. aeruginosa (CFS 1292); Passage #3, MIC of agent on untreated culture): 0.25 µg/mL
- Passage MIC Passage #3 (P. aeruginosa (CFS 1292); Passage #3, colonies from spot dilution, duplicates (1),(2)): 0.25 µg/mL
- Passage MIC Passage #4 (Untreated) (P. aeruginosa (CFS 1292); Passage #4, MIC of agent on untreated culture): 0.25 µg/mL
- Passage MIC Passage #4 (P. aeruginosa (CFS 1292); Passage #4, colonies from spot dilution, duplicates (1),(2)): 0.25 µg/mL
- Passage MIC Passage #5 (Untreated) (P. aeruginosa (CFS 1292); Passage #5, MIC of agent on untreated culture): 0.25 µg/mL
- Passage MIC Passage #5 (P. aeruginosa (CFS 1292); Passage #5, colonies from spot dilution, duplicates (1),(2)): 0.25 µg/mL
- MIC Center (P. aeruginosa (CFS 1292); spot dilution assay, colonies from center of clearing zone): No growth
- MIC Periphery (P. aeruginosa (CFS 1292); spot dilution assay, colonies from periphery of clearing zone): 0.25 µg/mL
- MIC Untreated control (P. aeruginosa (CFS 1292); spot dilution assay, untreated control): 0.25 µg/mL
- propensity towards resistance (P. aeruginosa (CFS 1292); spot dilution colonies, five passages total): no propensity towards resistance
- 45 hr MIC [4]: 2 µg/mL
- MIC ([5]; Mycobacterium tuberculosis (Zopf) Lehmann and Neumann ATCC 25177): 16 µg/mL
- MIC ([5]; Mycobacterium tuberculosis (Zopf) Lehmann and Neumann ATCC 35817): 16 µg/mL
